Source: BigSolDB 2.1

OC[C@H]1O[C@@H](Oc2c(O)cc(O)cc2/C=C/c2ccc(O)cc2)[C@H](O)[C@@H](O)[C@@H]1O
solubility (mole fraction)
Conditions | in DMF | in THF | in acetone | in acetonitrile | in ethanol | in ethyl acetate | in isopropanol | in methanol | in n-propanol
278.15 K | 0.0145 | 0.0128 | 0.0121 | 0.00281 | 0.00757 | 0.00441 | 0.00535 | 0.00794 | 0.00601
283.15 K | 0.0175 | 0.0157 | 0.0149 | 0.00349 | 0.00881 | 0.00543 | 0.00652 | 0.00978 | 0.0078
288.15 K | 0.0214 | 0.0191 | 0.0181 | 0.0043 | 0.0108 | 0.00665 | 0.00838 | 0.0121 | 0.00977
293.15 K | 0.0255 | 0.0231 | 0.0219 | 0.00526 | 0.0136 | 0.00828 | 0.01 | 0.0149 | 0.012
298.15 K | 0.0311 | 0.0277 | 0.0264 | 0.00639 | 0.0159 | 0.00987 | 0.0122 | 0.0181 | 0.014
303.15 K | 0.0369 | 0.0331 | 0.0315 | 0.00772 | 0.0199 | 0.0118 | 0.0146 | 0.0215 | 0.0166
308.15 K | 0.0442 | 0.0393 | 0.0365 | 0.00927 | 0.0232 | 0.0139 | 0.0174 | 0.0261 | 0.0196
313.15 K | 0.0522 | 0.0464 | 0.0443 | 0.0111 | 0.0281 | 0.0165 | 0.0205 | 0.0316 | 0.0228
318.15 K | 0.0614 | 0.0545 | 0.052 | 0.0131 | 0.0326 | 0.0192 | 0.0238 | 0.0377 | 0.0269
